# Species: Rattus norvegicus
# Assay: Inhibition of rat recombinant geranylgeranyltransferase type I expressed in Escherichia coli assessed as residual enzyme activity for geranylgeranylation of K-Ras4B at 50 uM incubated for 30 mins in presence of [3H]GGPP by scintillation counting assay relative to control
row,SMILES,Activity [%]
1,COc1ccc([C@@H]2CC=C(C(=O)O)[C@H](c3cccc(Br)c3)N2S(=O)(=O)c2ccc(C)cc2)cc1OC,59
2,CCCCCS[C@@H]1C[C@@H](c2ccccc2)N(S(=O)(=O)c2ccc(C)cc2)C[C@H]1C(=O)O,77.2
3,COc1ccc([C@@H]2C[C@@H](SC3CCCC3)[C@H](C(=O)O)CN2S(=O)(=O)c2ccc(Cl)cc2)cc1,83.1
4,COc1ccc([C@@H]2CC=C(C(=O)O)[C@H](c3cccc(F)c3)N2S(=O)(=O)c2ccc(Cl)cc2)cc1,69.3
5,COc1ccc([C@@H]2CC=C(C(=O)O)[C@H](c3ccc(Br)cc3)N2S(=O)(=O)c2ccc(C)cc2)cc1,72.1
6,CCCCCCS[C@@H]1C[C@@H](c2ccc(OC)cc2)N(S(=O)(=O)c2ccc(C)cc2)C[C@H]1C(=O)O,83.6
7,COc1cc([C@@H]2C[C@@H](Sc3ccccc3)[C@H](C(=O)O)CN2S(=O)(=O)c2ccc(C)cc2)cc(OC)c1OC,83.7
8,CS(=O)(=O)N1[C@@H](c2cccc(Br)c2)C(C(=O)O)=CC[C@H]1c1ccc(Cl)cc1,50.4
9,CC(=O)C1=CC[C@@H](c2ccccc2F)N(S(=O)(=O)c2ccc(C)cc2)C1,80.8
10,Cc1ccc(S(=O)(=O)N2[C@@H](c3ccc(Br)cc3)C(C(=O)O)=CC[C@H]2c2ccc3c(c2)OCO3)cc1,74.4
11,CCOc1ccc([C@@H]2C[C@@H](SC3CCCC3)[C@H](C(=O)O)CN2S(=O)(=O)c2ccc(C)cc2)cc1,84.6
12,CCCCCS[C@@H]1C[C@@H](c2cccc(OC)c2)N(S(=O)(=O)c2ccc(C)cc2)C[C@H]1C(=O)O,105
13,Cc1ccc([C@@H]2C[C@@H](SCC(C)C)[C@H](C(=O)O)CN2S(=O)(=O)c2ccc(Cl)cc2)cc1,66.3
14,Cc1ccc(S(=O)(=O)N2C[C@@H](C(=O)O)[C@H](SC3CCCC3)C[C@H]2c2ccccc2)cc1,93.6
15,Cc1ccc(S(=O)(=O)N2[C@@H](c3cccc(Br)c3)C(C(=O)O)=CC[C@H]2c2ccc(C#N)cc2)cc1,93.5
16,Cc1ccc([C@@H]2CC=C(C(=O)O)[C@H](c3ccc(F)cc3)N2S(=O)(=O)c2ccc(C)cc2)cc1,67.7
17,Cc1ccc([C@@H]2CC=C(C(=O)O)[C@H](c3ccc(Cl)cc3)N2S(C)(=O)=O)cc1,79.1
18,CCS[C@@H]1C[C@@H](c2cccc(Cl)c2)N(S(=O)(=O)c2ccc(C)cc2)C[C@H]1C(=O)O,75.7
19,COc1ccc([C@@H]2CC=C(C(=O)O)[C@H](c3ccc(Cl)cc3)N2S(=O)(=O)c2ccccc2C)cc1,80
20,COc1cccc([C@@H]2C[C@@H](SCC(C)C)[C@H](C(=O)O)CN2S(=O)(=O)c2ccc(C)cc2)c1,64.5
21,Cc1ccc([C@@H]2CC=C(C(=O)O)[C@H](c3cccc(Cl)c3)N2S(C)(=O)=O)cc1,64.4
22,Cc1ccc(S(=O)(=O)N2[C@@H](c3cccc(Cl)c3)C(C(=O)O)=CC[C@H]2c2cccs2)cc1,79.5
23,CCCS[C@@H]1C[C@@H](c2ccc(OC)cc2)N(S(=O)(=O)c2ccccc2)C[C@H]1C(=O)O,89.5
24,Cc1ccc(S(=O)(=O)N2[C@@H](c3ccc(Br)cc3)C(C(=O)O)=CC[C@H]2c2ccc(C#N)cc2)cc1,70.6
25,Cc1ccc([C@@H]2CC=C(C(=O)O)[C@H](c3ccc(C(C)(C)C)cc3)N2S(=O)(=O)c2ccc(C)cc2)cc1,85.5
26,C=CCS[C@@H]1C[C@@H](c2ccc(OC)cc2)N(S(=O)(=O)c2ccccc2)C[C@H]1C(=O)O,106
27,Cc1ccc(S(=O)(=O)N2[C@@H](c3ccc(Br)cc3)C(C(=O)O)=CC[C@H]2c2ccc(C(C)C)cc2)cc1,83.7

row,SMILES,Activity [%]
1,Cc1ccc(S[C@@H]2C[C@@H](c3ccc(C)cc3)N(S(C)(=O)=O)C[C@H]2C(=O)O)cc1,108
2,COc1ccc([C@@H]2C[C@@H](SCCC(C)C)[C@H](C(=O)O)CN2S(=O)(=O)c2ccccc2)cc1,96.7
3,COc1cc([C@@H]2C[C@@H](SCC(C)C)[C@H](C(=O)O)CN2S(=O)(=O)c2ccc(C)cc2)cc(OC)c1OC,98.3
4,CCCS[C@@H]1C[C@@H](c2ccccc2F)N(S(=O)(=O)c2ccc(C)cc2)C[C@H]1C(=O)O,91.1
5,Cc1ccc([C@H]2C(C(=O)O)=CC[C@@H](c3cccc(C)c3)N2S(=O)(=O)c2ccc(C)cc2)cc1,82.4
6,Cc1ccc([C@@H]2CC=C(C(=O)O)[C@H](c3cccc(Br)c3)N2S(C)(=O)=O)cc1,66.6
7,COc1ccc([C@@H]2C[C@@H](SC3CCCC3)[C@H](C(=O)O)CN2S(=O)(=O)c2ccccc2C)cc1,98.2
8,Cc1ccc(S(=O)(=O)N2C[C@@H](C(=O)O)[C@H](SCC(C)C)C[C@H]2c2ccccc2F)cc1,56.8
9,CCCCS[C@@H]1C[C@@H](c2ccc(OC)cc2)N(S(=O)(=O)c2ccc(Cl)cc2)C[C@H]1C(=O)O,72.9
10,Cc1ccc(S(=O)(=O)N2[C@@H](c3cccc(C)c3)C(C(=O)O)=CC[C@H]2c2cccc(C)c2)cc1,58
11,Cc1ccc(S(=O)(=O)N2[C@@H](c3cccc(F)c3)C(C(=O)O)=CC[C@H]2c2cccs2)cc1,81.8
12,COc1cccc([C@@H]2C[C@@H](SC3CCCC3)[C@H](C(=O)O)CN2S(=O)(=O)c2ccc(C)cc2)c1,113
13,Cc1ccc(S(=O)(=O)N2C[C@@H](C(=O)O)[C@H](SCCC(C)C)C[C@H]2c2ccc3c(c2)OCO3)cc1,77.4
14,COc1cccc([C@@H]2C[C@@H](Sc3ccc(C)cc3)[C@H](C(=O)O)CN2S(=O)(=O)c2ccc(C)cc2)c1,77
15,Cc1ccc([C@@H]2CC=C(C(=O)O)[C@H](c3ccc(Cl)cc3)N2S(=O)(=O)c2ccc(C)cc2)cc1,67.4
16,COc1cccc([C@@H]2C[C@@H](SCCC(C)C)[C@H](C(=O)O)CN2S(=O)(=O)c2ccc(C)cc2)c1,62
17,Cc1ccc(S(=O)(=O)N2[C@@H](c3cccc(C)c3)C(C(=O)O)=CC[C@H]2c2cccs2)cc1,68.9
18,Cc1ccc(S(=O)(=O)N2C[C@@H](C(=O)O)[C@H](SCC(C)C)C[C@H]2c2ccc(Cl)cc2)cc1,86.8
19,Cc1cccc([C@H]2C(C(=O)O)=CC[C@@H](c3ccccc3)N2S(C)(=O)=O)c1,68.1
20,COc1ccc([C@@H]2CC=C(C(=O)O)[C@H](c3ccc(Br)cc3)N2S(=O)(=O)c2ccc(C)cc2)cc1OC,74
21,COc1cccc([C@@H]2CC=C(C(=O)O)[C@H](c3ccc(Cl)cc3)N2S(=O)(=O)c2ccc(C)cc2)c1,54.1
22,CC(=O)C1=CC[C@@H](c2ccccc2)N(S(=O)(=O)c2ccc(C)cc2)C1,98.8
23,COc1ccc([C@@H]2CC=C(C(=O)O)[C@H](c3ccc(C(C)(C)C)cc3)N2S(=O)(=O)c2ccc(C)cc2)cc1,91.1
24,CCCCCS[C@@H]1C[C@@H](c2cccc(Cl)c2)N(S(=O)(=O)c2ccc(C)cc2)C[C@H]1C(=O)O,84.6
25,COc1cc([C@@H]2C[C@@H](Sc3ccc(C)cc3)[C@H](C(=O)O)CN2S(=O)(=O)c2ccc(C)cc2)cc(OC)c1OC,95.6
26,CC(=O)C1=CC[C@@H](c2cccc(Cl)c2)N(S(=O)(=O)c2ccc(C)cc2)C1,86
27,COc1ccc(S[C@@H]2C[C@@H](c3ccc(C)cc3)N(S(=O)(=O)c3ccc(Cl)cc3)C[C@H]2C(=O)O)cc1,82.7

# The remaining lines, values ahead:
row,Activity [%],SMILES
1,57,Cc1ccc([C@@H]2C[C@@H](Sc3ccc(Cl)cc3)[C@H](C(=O)O)CN2S(=O)(=O)c2ccc(C)cc2)cc1
2,74.8,Cc1ccc(S[C@@H]2C[C@@H](c3ccc(Cl)cc3)N(S(=O)(=O)c3ccccc3C)C[C@H]2C(=O)O)cc1
3,61.1,CCOc1ccc([C@@H]2C[C@@H](Sc3ccccc3)[C@H](C(=O)O)CN2S(=O)(=O)c2ccc(C)cc2)cc1
4,87.8,CCS[C@@H]1C[C@@H](c2ccc(Cl)cc2)N(S(=O)(=O)c2ccc(C)cc2)C[C@H]1C(=O)O
5,47.4,Cc1ccc([C@@H]2C[C@@H](SCc3ccccc3)[C@H](C(=O)O)CN2S(=O)(=O)c2ccccc2)cc1
6,34.5,C=CCS[C@@H]1C[C@@H](c2ccc(C)cc2)N(S(=O)(=O)c2ccccc2C)C[C@H]1C(=O)O
7,69.5,Cc1ccc([C@@H]2C[C@@H](SCc3ccc(C(C)(C)C)cc3)[C@H](C(=O)O)CN2S(=O)(=O)c2ccccc2C)cc1
8,59.3,Cc1ccc(S(=O)(=O)N2C[C@@H](C(=O)O)[C@H](SCc3ccc(C(C)(C)C)cc3)C[C@H]2c2ccc3c(c2)OCO3)cc1
9,82.2,COc1ccc(S[C@@H]2C[C@@H](c3ccc(OC)cc3)N(S(=O)(=O)c3ccccc3C)C[C@H]2C(=O)O)cc1
10,99.1,COc1ccc(S[C@@H]2C[C@@H](c3ccccc3)N(S(=O)(=O)c3ccc(C)cc3)C[C@H]2C(=O)O)cc1
11,78.5,COc1ccc([C@@H]2C[C@@H](Sc3ccc(C)cc3)[C@H](C(=O)O)CN2S(=O)(=O)c2ccccc2C)cc1
12,80.9,Cc1ccc([C@@H]2CC=C(C(=O)O)[C@H](c3ccc(C(C)(C)C)cc3)N2S(=O)(=O)c2ccccc2C)cc1
13,71.9,CCc1ccc([C@@H]2C[C@@H](SCCC(C)C)[C@H](C(=O)O)CN2S(=O)(=O)c2ccc(C)cc2)cc1
14,76.1,Cc1ccccc1S(=O)(=O)N1C[C@@H](C(=O)O)[C@H](SCC(C)C)C[C@H]1c1ccc(Cl)cc1
15,82.6,CCCCS[C@@H]1C[C@@H](c2ccc(C)cc2)N(S(=O)(=O)c2ccc(C)cc2)C[C@H]1C(=O)O
16,85,CCc1ccc([C@@H]2C[C@@H](Sc3ccc(C)cc3)[C@H](C(=O)O)CN2S(=O)(=O)c2ccc(C)cc2)cc1
17,65.9,COc1ccc([C@@H]2C[C@@H](SCCC(C)C)[C@H](C(=O)O)CN2S(=O)(=O)c2ccccc2C)cc1
18,69.1,COc1ccc([C@@H]2C[C@@H](SCc3ccc(Cl)cc3)[C@H](C(=O)O)CN2S(=O)(=O)c2ccc(C)cc2)cc1OC
19,92.1,Cc1ccc(S(=O)(=O)N2C[C@@H](C(=O)O)[C@H](SCc3ccccc3)C[C@H]2c2ccccc2)cc1
20,89.6,C=CCS[C@@H]1C[C@@H](c2ccc(CC)cc2)N(S(=O)(=O)c2ccc(C)cc2)C[C@H]1C(=O)O
21,92.4,Cc1ccc(S[C@@H]2C[C@@H](c3ccc(C)cc3)N(S(=O)(=O)c3ccc(Cl)cc3)C[C@H]2C(=O)O)cc1
22,88.4,CCCS[C@@H]1C[C@@H](c2ccc(OC)cc2)N(S(=O)(=O)c2ccccc2C)C[C@H]1C(=O)O
23,69.6,Cc1ccc([C@@H]2C[C@@H](SCc3ccc(C(C)(C)C)cc3)[C@H](C(=O)O)CN2S(=O)(=O)c2ccc(C)cc2)cc1

# Source: ChEMBL document CHEMBL4421722, “Inhibitors of protein prenyltransferases” (2013)
